Data from patent US20180296532A1, “RNA-Focused Small Molecules for Inhibiting RNA Toxicity in Myotonic Dystrophy” (The Scripps Research Institute, priority 2015, published 2018).

Assays:
[1] = test system: r(CUG)960; assay: Competitive ChemCLIP (C-ChemCLIP) target pull-down with 2H-4-CA-Biotin, qRT-PCR; type: cell-based; details: HeLa cells with DM1 mini-gene; 100 nM 2H-4-CA-Biotin and 10 μM compound
Description: The biological targets of Formula (I) compounds were further investigated by using Competitive ChemCLIP (C-ChemCLIP) (FIG. 4B).(48, 49) In ChemCLIP, an RNA-binding compound is appended with: (i) a reactive module (chlorambucil; CA) that cross-links to the RNAs that the small molecule binds in cellulo; and (ii) a biotin moiety for facile pull-down and isolation of those targets.^(49) The pulled-down fraction is then analyzed by qRT-PCR. In this particular application, we used C-ChemCLIP using a previously studied compound, 2H-4-CA-Biotin, that binds and cross-links to r(CUG)^exp in cellulo.^(49) If exemplary Formula (I) compounds also engage r(CUG)^exp in cellulo, then the amount of the RNA pulled down by 2H-4-CA-Biotin should decrease as a function of 1, 16, or 17 concentration.
Cells were transfected with 10 μg of plasmid expressing the DM1 mini-gene using Lipofectamine 2000 (Invitrogen) according to the manufacturer's standard protocol. […] After 20-24 h, the cells were lysed and total RNA was harvested using Trizol reagent (Ambion) according to the manufacturer's protocol. Approximately 30 μg of total RNA was used for pull-down using 15 nmoles of streptavidin-agarose beads (Sigma-Aldrich; 15 μg/mL biotin loading) as previously described.^(49) The lysate was incubated with the beads for 1 h at room temperature with shaking at 500 rpm. The solution was removed, and the beads were washed with 500 μL aliquots of 1×PBS. Bound material was released from the beads by heating at 95° C. for 5 min in 30 μL of 95% formamide containing 10 mM EDTA, pH 8.2.
Reverse transcription reactions were carried out using qScript cDNA synthesis kit by adding ˜60 ng of either total RNA or captured RNA according to the manufacturer's protocol. Then, 30% of each cDNA sample was used for quantitative real time PCR (qPCR) analysis for each primer set. qPCR was performed on a 7900HT Fast Real-Time PCR System (Applied Biosystems) using Power SYBR Master Mix (Life Technologies). The PCR primers for the DM1/DMPK mini-gene mRNA were 5′-CGTGCAAGCGCCCAG (forward) and 5′-[…] (reverse). The PCR primers for 18S ribosomal RNA were 5′-[…] (forward) and 5′-[…] (reverse).
Cells were transfected with 10 μg of plasmid expressing the DM1 mini-gene using Lipofectamine 2000 (Invitrogen) according to the manufacturer's standard protocol. […]
Reverse transcription reactions were carried out using qScript cDNA synthesis kit by adding 150 ng of either total RNA or captured RNA according to the manufacturer's protocol. Then, 30% of each cDNA sample was used for quantitative real time PCR (qPCR) analysis for each primer set. qPCR was performed on a 7900HT Fast Real-Time PCR System (Applied Biosystems) using Power SYBR Master Mix (Life Technologies). […]

[2] = test system: r(CUG)109; assay: Competition dialysis with various RNAs and MBNL1; type: binding; details: for loading onto r(CUG)109: 5 μM small molecule
Description: The selectivities of compounds 1, 16, and 17 were measured by competition dialysis using various RNA and protein targets. RNA targets included a mimic of the human rRNA A-site, the MBNL1-binding site in the cTNT pre-mRNA, an RNA with GC base pairs, and RNAs with different numbers of r(CUG) repeats (r(CUG)1×2, r(CUG)6×2, and r(CUG)109, an expanded repeat of a length causative of disease^(23)) (FIG. 3A). […] Binding to MBNL1 was also evaluated to assess the propensity of the compounds to bind MBNL1 over r(CUG)^exp.
Competition dialysis was performed using Pierce Slide-A-Lyzer MINI dialyzer units with a 3,500 Da molecular weight cutoff. The RNAs evaluated were folded by heating an 8 μM solution of RNA in 199 μL 1× Dialysis Buffer (8 mM NaH2PO4, pH 7.2, 185 mM NaCl and 1 mM EDTA) at 65° C. for 5 min followed by slowly cooling to room temperature on the bench top. Then, 1 μL of 1 mM small molecule was added (5 μM final concentration), and the solution was transferred to the dialyzer units (100 μL samples in duplicate). The dialyzer units were then placed in 150 mL of 5 μM small molecule in 1× Dialysis Buffer and stirred at 200 rpm at 4° C. for 48 h. Following equilibration, 90 μL of each sample was transferred to a microcentrifuge tube and treated with 10 μL of 10% SDS to dissociate the ligand. The total ligand concentration (Ct) within each dialysis unit was quantified spectrophotometrically using the appropriate absorbance wavelength and extinction coefficient for each compound. […] The bound ligand concentration (Cb) was then determined using equation 1: […]
where Cb, Ct, and Cf are concentrations of bound, total, and free ligand, respectively.

Row | Structure (SMILES) | amount of r(CUG)^exp pulled down by 2H-4-CA-Biotin [1] | selectivity of binding for r(CUG) repeat RNAs versus other RNAs and MBNL1 ([2]; targets at 8 μM) | loading onto r(CUG)109 ([2]; targets at 8 μM) | loading on r(CUG)109 relative to r(CUG)6×2 [2]
1 | N=C(N)Nc1ccc2nc(-c3ccc(-c4nc5ccc(NC(=N)N)cc5[nH]4)cc3)[nH]c2c1 [Compound 2GN8] | reduced by half | selectively binds r(CUG)^exp containing RNAs |  | 
2 | O=C(Nc1ccc(-c2nc3cc(NC(=O)c4ccco4)ccc3[nH]2)cc1)c1ccco1 [Compound 16] | significantly reduced |  | lowest loading | 
3 | O=C(Nc1ccc(-c2nc3ccccc3[nH]2)cc1)c1ccc(-c2ccc(Cl)cc2)o1 [Compound 17] | significantly reduced |  | highest loading | ~14 fold
